# Reference: US20110039763A1, “TARGETED ANTIMICROBIAL MOIETIES” (C3 JIAN, INC., priority 2009, published 2011)
# Entries after “also recorded” stand apart in the source; their conditions may differ. Ends that are not written are not given here.
# What was measured:
# microorganisms [1] = assay: Morphology, biofilm and growth disrupting peptides (Table 5); type: cell-based; set-up: key: A: Peptide aggregates; B: Less hyphal formation; Clumps; Diffuse clumps and small polyps; F: Diffuse growth; H: Thin; I: Growth inhibition; Microcolony formation; Rippled; Small polyps; Thick; W: Halo formation on top, microlonies on bottom
# From the text: In certain embodiments peptides that induce alterations in phenotype or other biological activities can also be used as antimicrobial effector moieties.
# microorganisms [2] = assay: Targeting peptide binding to target microorganisms (Tables 3, 10, 12); conditions: microorganism(s) the targeting peptide binds, preferably 1x PBS
# microorganisms [3] = assay: Peptide activities: targeting/binding, antimicrobial, growth or phenotype altering (Tables 7, 8); type: cell-based; conditions: peptides having multiple activities
# S. pneumoniae = assay: MIC test / antimicrobial activity, S. pneumoniae; type: cell-based, Streptococcus pneumoniae
# Method: (§1) The active AMPs, STAMPs and the like can be identified and/or validated using an in vitro screening assay.
# (§2) It will be appreciated that other assays as are well known in the art or that will become apparent to those having skill in the art upon review of this disclosure may also be used to identify active AMPs. Such assays include, for example, the assay described in Lehrer et al. (1988) J. Immunol.
# (§3) Peptides were evaluated for basic antimicrobial activity by broth microdilution, as described previously (Eckert et al. (2006) Antimicrob Agents Chemother., 50: 3651-3657; Eckert et al. (2006) Antimicrob Agents Chemother., 50: 1480-1488). Briefly, ˜1×10^5 cfu/mL bacteria were diluted in TH (S. mutans), or Mueller-Hinton (MH) broth (all other organisms) and distributed to 96-well plates. Serially-diluted (2-fold) peptides were then added and the plates incubated at 37° C. for 18-24 h. […] All experiments were conducted 10 times.
# C. difficile = assay: MIC test / antimicrobial activity, C. difficile; type: cell-based, Clostridium difficile
# Method: as §1, §2, §3
# MRSA = assay: MIC test / antimicrobial activity, MRSA; type: cell-based, Methicillin-resistant Staphylococcus aureus
# Method: as §1, §2, §3
# S. epidermidis = assay: MIC test (broth microdilution) / antimicrobial activity, S. epidermidis; type: cell-based, Staphylococcus epidermidis; conditions: S. epidermidis
# Method: as §1, §2, §3
# A. niger = assay: MIC test / antimicrobial activity, A. niger; type: cell-based, Aspergillus niger
# Method: as §1, §2, §3
# A. baumannii = assay: MIC test / antimicrobial activity, A. baumannii; type: cell-based, Acinetobacter baumannii
# Method: as §1, §2, §3
# B. subtilis = assay: MIC test / antimicrobial activity, B. subtilis; type: cell-based, Bacillus subtilis; conditions: B. subtilis
# Method: as §1, §2, §3
# T. rubrum = assay: MIC test / antimicrobial activity, T. rubrum; type: cell-based, Trichophyton rubrum
# Method: as §1, §2, §3
# S. mutans = assay: MIC test (broth microdilution) / antimicrobial activity, S. mutans; type: cell-based, Streptococcus mutans
# Method: as §1, §2, §3
# [4] = binding in aqueous buffers varied with peptide solubility
substance,measurement,setting,value
CGKLLEQKNFFLKTR [PF-521],"Organism, effect",microorganisms [1]; S. pneumoniae,S. pneumoniae (H)
same,Target(s),microorganisms [2]; [4],S. epidermidis; also recorded: E. coli; also recorded: P. aeruginosa; also recorded: S. pneumoniae; also recorded: E. faecalis
same,Activities,microorganisms [3],G B M
same,Organism MIC (μM),S. pneumoniae,"S. pneumoniae, 50 μM"
FELVDWLETNLGKILKSKSA-NH2 [PF-522],"Organism, effect",microorganisms [1]; S. pneumoniae,S. pneumoniae (H)
same,Organism MIC (μM),C. difficile,"C. difficile, 25 μM"
same,Target(s),microorganisms [2]; [4],S. epidermidis; also recorded: E. coli; also recorded: P. aeruginosa; also recorded: S. pneumoniae; also recorded: E. faecalis
same,Activities,microorganisms [3],G B M
KFQGEFTNIGQSYIVSASHMSTSLNTGK [PF-583],"Organism, effect",microorganisms [1]; MRSA,MRSA (I)
same,"Organism, effect",microorganisms [1]; S. epidermidis,S. epidermidis (I)
same,"Organism, effect",microorganisms [1]; S. mutans,S. mutans (F)
same,"Organism, effect",microorganisms [1]; S. pneumoniae,S. pneumoniae (D)
same,Organism MIC (μM),MRSA,"MRSA, 50 μM"
same,Organism MIC (μM),S. epidermidis,"S. epidermidis, 50 μM"
same,Activities,microorganisms [3],G B M
KFSDQIDKGQDALKDKLGDL [PF-525],"Organism, effect",microorganisms [1]; S. pneumoniae,S. pneumoniae (H)
same,Activities,microorganisms [3],G M
same,Organism MIC (μM),A. niger,"A. niger, 50 μM"
same,Organism MIC (μM),S. pneumoniae,"S. pneumoniae, 50 μM"
KNKKQTDILEKVKEILDKKKKTKSVGQKLY [PF-538],"Organism, effect",microorganisms [1]; S. pneumoniae,S. pneumoniae (H)
same,Organism MIC (μM),C. difficile,"C. difficile, 25 μM"
same,Activities,microorganisms [3],G M
same,Organism MIC (μM),A. baumannii,"A. baumannii, 25 μM"
LSEMERRRLRKRA-NH2 [PF-529],"Organism, effect",microorganisms [1]; S. pneumoniae,S. pneumoniae (H)
same,Target(s),microorganisms [2]; [4],S. epidermidis and E. coli and C. albicans and MRSA and S. pneumoniae and E. faecalis and C. jeikeium
same,Activities,microorganisms [3],G B M
same,Organism MIC (μM),A. niger,"A. niger, 50 μM"
same,Organism MIC (μM),S. pneumoniae,"S. pneumoniae, 50 μM"
MGIIAGIIKFIKGLIEKFTGK [PF-006],"Organism, effect: B. subtilis",microorganisms [1]; B. subtilis,B. subtilis (I)
same,"Organism, effect: C. jejuni",microorganisms [1],C. jejuni (D)
same,"Organism, effect: M. luteus",microorganisms [1],M. luteus (A)
same,"Organism, effect: MRSA",microorganisms [1]; MRSA,MRSA (I)
same,"Organism, effect: S. epidermidis",microorganisms [1]; S. epidermidis,S. epidermidis (D)
same,"Organism, effect: S. pneumoniae",microorganisms [1]; S. pneumoniae,S. pneumoniae (R)
same,Target(s),microorganisms [2]; binding in aqueous buffers that varied with peptide solubility,S. epidermidis and M. luteus and E. coli and P. aeruginosa and MRSA and E. faecalis and C. jeikeium and C. jejuni
same,Organism MIC (μM),MRSA,"MRSA, 50 μM"
same,Organism MIC (μM),B. subtilis,"B. subtilis, 25 μM"
same,Activities,microorganisms [3],G B M
same,Organism MIC (μM),A. baumannii,"A. baumannii, 50 μM"
MIRIRSPTKKKLNRNSISDWKSNTSGRFFY [PF-283],"Organism, effect: B. subtilis",microorganisms [1]; B. subtilis,B. subtilis (H)
same,"Organism, effect: S. epidermidis",microorganisms [1]; S. epidermidis,S. epidermidis (H)
same,Organism MIC (μM),T. rubrum,"T. rubrum, 50 μM"
same,Target(s),microorganisms [2]; [4],B. subtilis; also recorded: B. fragilis; also recorded: C. difficile
same,Organism MIC (μM),B. subtilis,"B. subtilis, 50 μM"
same,Organism MIC (μM),S. epidermidis,"S. epidermidis, 50 μM"
same,Activities,microorganisms [3],G B M
NYAVVSHT [PF-209],"Organism, effect: MRSA",microorganisms [1]; MRSA,MRSA (I)
same,"Organism, effect: P. aeruginosa",microorganisms [1],P. aeruginosa (H)
same,"Organism, effect: S. epidermidis",microorganisms [1]; S. epidermidis,S. epidermidis (C)
same,Target(s),microorganisms [2]; [4],C. albicans; also recorded: C. jeikeium; also recorded: C. jejuni
same,Organism MIC (μM),MRSA,"MRSA, 50 μM"
same,Activities,microorganisms [3],G B M
PDAPRTCYHKPILAALSRIVVTDR [PF-524],"Organism, effect",microorganisms [1]; E. coli,E. coli (M)
same,"Organism, effect",microorganisms [1]; E. faecalis,E. faecalis (C)
same,"Organism, effect",microorganisms [1]; MRSA,MRSA (C)
same,"Organism, effect",microorganisms [1]; S. pneumoniae,S. pneumoniae (M)
same,Target(s),microorganisms [2]; [4],S. epidermidis and E. coli and P. aeruginosa and C. albicans and MRSA and S. pneumoniae and E. faecalis and C. jeikeium
same,Activities,microorganisms [3],G B M
same,Organism MIC (μM),S. pneumoniae,"S. pneumoniae, 50 μM"
RESKLIAMADMIRRRI-NH2 [PF-545],"Organism, effect",microorganisms [1]; B. subtilis,B. subtilis (I)
same,"Organism, effect",microorganisms [1]; C. albicans,C. albicans (B)
same,"Organism, effect",microorganisms [1]; C. jeikeium,C. jeikeium (H)
same,"Organism, effect",microorganisms [1]; E. faecalis,E. faecalis (H)
same,Target(s),microorganisms [2]; [4],S. epidermidis; also recorded: E. coli; also recorded: P. aeruginosa; also recorded: S. pneumoniae; also recorded: E. faecalis; also recorded: C. jeikeium
same,Organism MIC (μM),MRSA,"MRSA, 50 μM"
same,Organism MIC (μM),B. subtilis,"B. subtilis, 25 μM"
same,Activities,microorganisms [3],G B M
same,Organism MIC (μM),A. niger,"A. niger, 50 μM"
RRGCTERLRRMARRNAWDLYAEHFY [PF-148],"Organism, effect: B. subtilis",microorganisms [1]; B. subtilis,B. subtilis (I)
same,"Organism, effect: C. albicans",microorganisms [1]; C. albicans,C. albicans (B)
same,"Organism, effect: C. jeikeium",microorganisms [1]; C. jeikeium,C. jeikeium (H)
same,"Organism, effect: C. jejuni",microorganisms [1],C. jejuni (H)
same,"Organism, effect: M. luteus",microorganisms [1],M. luteus (A)
same,"Organism, effect: MRSA",microorganisms [1]; MRSA,MRSA (C)
same,"Organism, effect: S. epidermidis",microorganisms [1]; S. epidermidis,S. epidermidis (D)
same,"Organism, effect: S. pneumoniae",microorganisms [1]; S. pneumoniae,S. pneumoniae (R)
same,Organism MIC (μM),B. subtilis,"B. subtilis, 50 μM"
same,Activities,microorganisms [3],G B M
same,Organism MIC (μM),A. niger,"A. niger, 50 μM"
SFMPEIQKNTIPTQMK [PF-512],"Organism, effect",microorganisms [1]; S. pneumoniae,S. pneumoniae (H)
same,Target(s),microorganisms [2]; [4],S. pneumoniae; also recorded: C. jeikeium
same,Activities,microorganisms [3],G B M
same,Organism MIC (μM),S. pneumoniae,"S. pneumoniae, 50 μM"
SKFKVLRKIIIKEYKGELMLSIQKQR [PF-530],"Organism, effect",microorganisms [1]; E. coli,E. coli (R)
same,"Organism, effect",microorganisms [1]; E. faecalis,E. faecalis (C)
same,"Organism, effect",microorganisms [1]; MRSA,MRSA (C)
same,"Organism, effect",microorganisms [1]; S. epidermidis,S. epidermidis (H)
same,"Organism, effect",microorganisms [1]; S. pneumoniae,S. pneumoniae (R)
same,Activities,microorganisms [3],G M
same,Organism MIC (μM),A. baumannii,"A. baumannii, 25 μM"
SLQSQLGPCLHDQRH [PF-448],"Organism, effect",microorganisms [1]; S. pneumoniae,S. pneumoniae (I)
same,Target(s),microorganisms [2]; [4],S. epidermidis; also recorded: M. luteus; also recorded: P. mirabilis; also recorded: E. coli; also recorded: S. pneumoniae; also recorded: E. faecalis; also recorded: C. jeikeium; also recorded: C. jejuni
same,Activities,microorganisms [3],G B M
same,Organism MIC (μM),A. niger,"A. niger, 25 μM"
same,Organism MIC (μM),S. pneumoniae,"S. pneumoniae, 50 μM"
VLPFPAIPLSRRRACVAAPRPRSRQRAS [PF-168],"Organism, effect: MRSA",microorganisms [1]; MRSA,MRSA (I)
same,"Organism, effect: P. aeruginosa",microorganisms [1],P. aeruginosa (H)
same,Organism MIC (μM),T. rubrum,"T. rubrum, 50 μM"
same,Target(s),microorganisms [2]; [4],S. epidermidis and M. luteus and E. coli and C. albicans and MRSA and C. jeikeium and C. jejuni
same,Organism MIC (μM),MRSA,"MRSA, 50 μM"
same,Activities,microorganisms [3],G B M
same,Organism MIC (μM),A. niger,"A. niger, 50 μM"
VMQSLYVKPPLILVTKLAQQN [PF-511],"Organism, effect",microorganisms [1]; S. pneumoniae,S. pneumoniae (H)
same,Target(s),microorganisms [2]; [4],E. coli; also recorded: P. aeruginosa; also recorded: S. pneumoniae; also recorded: C. jeikeium
same,Activities,microorganisms [3],G B M
same,Organism MIC (μM),S. pneumoniae,"S. pneumoniae, 50 μM"
WSRVPGHSDTGWKVWHRW-NH2 [PF-547],"Organism, effect",microorganisms [1]; B. subtilis,B. subtilis (I)
same,"Organism, effect",microorganisms [1]; E. faecalis,E. faecalis (R)
same,"Organism, effect",microorganisms [1]; MRSA,MRSA (M)
same,"Organism, effect",microorganisms [1]; S. epidermidis,S. epidermidis (R)
same,Organism MIC (μM),S. mutans,"S. mutans, 12.5 μM"
same,Organism MIC (μM),T. rubrum,"T. rubrum, 25 μM"
same,Target(s),microorganisms [2]; [4],S. epidermidis and E. coli and P. aeruginosa and C. albicans and MRSA and S. pneumoniae and E. faecalis
same,Organism MIC (μM),B. subtilis,"B. subtilis, 25 μM"
same,Activities,microorganisms [3],G B M
